# Test results taken from PubChem BioAssay AID504765 (Sanford-Burnham Center for Chemical Genomics, 2011).
# Values joined by “and” are separate entries in the source; they are usually repeats but may differ in a detail not shown here. Equal values may be shown once. Active and inactive are the calls of the source. How the calls were made is not given here.
# Target: glucose-6-phosphate dehydrogenase-6-phosphogluconolactonase (Plasmodium falciparum 3D7)
# Assay: concentration-dependent PfGluPho enzyme inhibition – biochemical, fluorescence intensity, dose response (AID 504765)
# Conditions: Recombinant PfG6PD enzyme, fluorescence intensity (NADPH)
row,SMILES,IC50
1,CCC(c1ccc(O)c(O)c1)C(CC)c1ccc(O)c(O)c1 (centres undefined),inactive
2,COc1ccc(N2CSC3=C(C#N)C(c4ccc(OC)c(OC)c4)CC(=O)N3C2)c(OC)c1 (centres undefined),5.21 µM
3,O=C(COc1cccc2ccccc12)Nc1ccc(Cl)cc1C(=O)O,13.5 µM
4,CCOC(=O)CSc1nnc(NC(=O)c2cccc([N+](=O)[O-])c2)s1,6.49 µM
5,O=C1C=CC(=O)N1c1ccc2c(c1)C(NC(=O)C(F)(F)F)c1ccccc1-2 (centres undefined),9.14 µM
6,Nn1c(CSc2nc3ccccc3o2)nnc1CSc1nc2ccccc2o1,11.5 µM
7,CCN(CC)c1ccc(NC(=O)c2ccccc2Br)cc1S(=O)(=O)Nc1ccccc1OC,inactive
8,O=C(Nc1ccccc1C(=O)N/N=C/c1ccco1)c1ccccc1Cl,10.6 µM
9,CCCn1cc(S(=O)(=O)CC(=O)Nc2ccc(OC)cc2OC)c2ccccc21,7.87 µM
10,CCNc1nc(NC(C)C)nc(NS(=O)(=O)c2ccc(Cl)cc2)n1,6.54 µM
11,[O-]/[N+](=C\c1ccccc1)c1ccc(Br)cc1,0.84 µM
12,COc1cccc(C2(c3cccc(OC)c3)CC2C(=O)Nc2ccc(F)cc2)c1 (centres undefined),10.3 µM
13,CCOc1ccccc1NS(=O)(=O)c1c(C)noc1C,9.95 µM
14,COc1cc(/C=N/n2cc(-c3ccccc3)[nH]c2=S)cc(OC)c1O,19.6 µM
15,CN1CCN(C(=S)C(=O)Nc2ccc(Br)cc2)CC1,7.26 µM
16,Cn1sc2ccccc2c1=O,5.82 µM
17,Cc1nc2c(o1)C(=O)c1ccccc1C2=Nc1ccccc1,7 µM
18,COC(=O)C1=C(C(=O)OC)SC2(S1)C(C(=O)OC)=C(C(=O)OC)Sc1c2ssc1=O,1.4 µM
19,CCOc1ccc(S(=O)(=O)Nc2cc(SCC(=O)O)c(O)c3ccccc23)cc1,2.47 µM
20,Cc1ccc(NC(=O)c2cc(N3C(=O)C=CC3=O)ccc2Cl)cc1C,14.1 µM
21,Cc1ccnc(-n2sc3ccccc3c2=O)n1,11.7 µM

row,SMILES,IC50
1,Cc1ccc(/C=C/C(=O)NCCc2cccc(Cl)c2)o1,7.59 µM
2,Cc1ccc(N2CC(C(=O)OCC(=O)c3ccc([N+](=O)[O-])cc3)CC2=O)cc1 (centres undefined),8.7 µM
3,O=C(Nc1nnc(C2CC2)s1)c1ccc(Cl)nc1,4.18 µM
4,COc1cc(NC(C)CCc2ccccc2)cc(OC)c1OC (centres undefined),2.02 µM
5,Cc1ccccc1-n1sc2cc(F)ccc2c1=O,2.15 µM
6,OCc1ccccc1SSc1ccccc1CO,16.5 µM
7,CN(C)S(=O)(=O)c1cccc(-n2sc3ccccc3c2=O)c1,2.08 µM
8,COc1cccc(-c2c(C(=O)N/N=C/c3ccc(C)s3)nnn2-c2nonc2N)c1,6.69 µM
9,Cc1nnc(N/N=C\c2ccc(-c3cccc(C(=O)O)c3)o2)n1N,4.75 µM
10,Cc1cnc(C=NNC(N)=S)c2cccc(N)c12,1.72 µM
11,CCOc1ccc(CNc2ccc(N3CCCC3)cc2)cc1,2.64 µM
12,CC(C)(C)c1ccc(C(=O)Nc2sc3c(c2C(=O)O)CCC3)cc1,12.7 µM
13,O=C(Cn1sc2ccccc2c1=O)Nc1ccc(F)cc1,2.56 µM
14,COC(=O)c1ccccc1NC1=C/C(=N\S(=O)(=O)c2cccs2)c2ccccc2C1=O,1.26 µM and 6.47 µM
15,Cc1cc(C)nc(SSc2nc(C)cc(C)n2)n1,3.06 µM
16,Cc1ccc2nc(SCC(=O)N/N=C/c3ccco3)cc(C)c2c1,10.3 µM
17,O=S(=O)(Nc1cc(Sc2cccc3cccnc23)c(O)c2ccccc12)c1ccc(F)cc1,1.22 µM
18,O=C(CNC(=O)c1ccccc1)NCC(=O)OCC(=O)c1ccc([N+](=O)[O-])cc1,inactive
19,CCOC(=O)c1c(C)n(-c2ccc(C)cc2)c2c(C(C(C)=O)C(=O)O)c(Br)c(O)c(O)c12 (centres undefined),2.76 µM
20,CCOC(=O)c1cnc2ccc(C)cc2c1Sc1ccccc1C(=O)OC,11.1 µM
21,CCN1CCCC1CNC(=O)c1ccc2c(c1)NC(=O)/C(=C\c1ccccc1F)S2 (centres undefined),1.96 µM

row,SMILES,IC50
1,Cc1ccc(C(=O)NCC(=O)NCC(=O)OCC(=O)c2ccc([N+](=O)[O-])cc2)cc1,5.92 µM
2,c1ccc(OCc2nnc3n2N=C(c2ccccc2)CS3)cc1,17.1 µM
3,Cc1ccc(S(=O)(=O)N(C(=O)c2ccncc2)c2ccc(OC(=O)c3ccncc3)c3ccccc23)cc1,17.7 µM
4,COc1cc(CN2CCCC(C(=O)c3ccc4c5c(cccc35)CC4)C2)cc(OC)c1O (centres undefined),3.44 µM
5,Cc1nnc(SCC(=O)c2cc(C)n(-c3ccc4c(c3)OCO4)c2C)s1,7.35 µM
6,Cc1cccc(C(=O)Nc2nnc(S(=O)(=O)N3CCCCCC3)s2)c1,6.58 µM
7,NNC(=O)CN1C(c2ccccc2Br)=Nc2ccc(Br)cc2C1c1ccccc1 (centres undefined),3.38 µM
8,Cc1ccccc1-n1c(-c2ccc3ccccc3n2)n[nH]c1=S,14.4 µM
9,Cc1cccc(-n2c(=S)[nH]c3sc4c(c3c2=O)CCc2ccccc2-4)c1,inactive
10,CCC(C)c1ccccc1OCCn1ccnc1 (centres undefined),3.39 µM
11,COc1cc(N)c2ncccc2c1OC,16.6 µM
12,Cc1cc(C)c2c(=O)n(CC(=O)NC3CCCC3)sc2n1,1.97 µM
13,COc1cc(NCCCn2cnc3c(OCc4ccccc4)ncnc32)cc(OC)c1OC,> 80 µM (inactive)
14,COc1cc(/C=C/C(=O)c2ccc([N+](=O)[O-])o2)ccc1O,5.16 µM
15,O=c1[nH]nc(CNc2ccc(O)cc2)c2ccccc12,inactive
16,CCN(CC)CCNC(=O)CCCCn1c(=S)[nH]c2c([nH]c3ccc(OC)cc32)c1=O,inactive
17,COc1cc(-c2cc(=O)c3c(O)c(OC)c(OC)c(O)c3o2)ccc1O,8.95 µM
18,O=C(CNC(=O)c1cccs1)NCC(=O)OCC(=O)c1ccc([N+](=O)[O-])cc1,16.7 µM
19,N#Cc1c(C#N)c(SSc2c(C#N)c(C#N)c(N)n2-c2ccccc2)n(-c2ccccc2)c1N,1.41 µM
20,O=C(CCc1ccc(S(=O)(=O)N2CCOCC2)cc1)N/N=C/c1ccc(O)c(O)c1O,5.82 µM
21,Cc1ccc(-c2c(C(=O)N/N=C/c3ccsc3)nnn2-c2nonc2N)cc1,inactive

row,SMILES,IC50
1,O=c1c2cc(F)ccc2sn1-c1ccccc1Cl,4.29 µM
2,Nn1c(SCC(=O)Nc2cccnc2Cl)nnc1-c1ccccc1,inactive
3,O=C1OC(c2ccc3ccccc3c2O)(c2ccc3ccccc3c2O)c2ccccc21,14.5 µM
4,c1cc2c(cc1NC1CCCCCC1)OCO2,19.2 µM
5,COc1ccc2ccccc2c1C1CC(=O)N2CN(C3CCCCC3)CSC2=C1C#N (centres undefined),14.7 µM
6,CN1CCc2cccc3c2[C@@H]1Cc1ccc(O)c(O)c1-3,8.36 µM
7,CCCCOc1ccc(Cc2n[nH]c(=S)n2N)cc1,inactive
8,N#Cc1ccc(N=c2ssnc2Cl)cc1,13.8 µM
9,Nc1c(O)cccc1C(=O)O,1.44 µM
10,CC1(C)Nc2ccc(O)cc2-c2c1ssc2=S,inactive
11,COc1cc(N(C)C)ccc1C=c1c2ccccc2n2c1cc(-c1ccccc1)[n+]2C,9.08 µM
12,COc1ccc(OC)c2c1C(=O)C(Cl)=C(Cl)C2=O,4.64 µM
13,COc1cc(C(=O)O/N=C2\C=CC(=O)C=C2C)cc(OC)c1OC,14.1 µM
14,CNCc1ccccc1Sc1cc(O)ccc1O,2.23 µM
15,CCn1c2ccccc2c2nc3cc(S(=O)(=O)N4CCOCC4)ccc3nc21,inactive
16,CN(C)C=Nc1ccc2nc3c(cc2c1)[nH]c1ccccc13,9.98 µM
17,COc1cc(OC)c(C2CC(=O)N3CN(c4ccccc4)CSC3=C2C#N)cc1OC (centres undefined),11.5 µM
18,O=C1Nc2ccccc2C(=O)C1(Cl)Cc1ccccc1 (centres undefined),9.57 µM
19,COc1cccc(C=Nc2cc(C(C)C)c(O)cc2C)c1O,5.48 µM
20,CC(=O)OCCCNc1cc(Sc2nc3ccccc3s2)c2nonc2c1[N+](=O)[O-],3.92 µM
21,COC1=CC(=O)C=C(OC)C1(O)CC(C)=O,5.91 µM
